# From publication PMC10547238, “Discovery of Potent Tetrazole Free Fatty Acid Receptor 2 Antagonists” (Journal of Medicinal Chemistry, 2023)
# Several values for one entry are separate records, joined by “and”; a condition that tells them apart may be missing. Identical values can stand only once.
# Legend:
# human FFA2-eYFP = target: T1, human FFA2-eYFP (Homo sapiens, UniProt O15552); assay: [35S]GTPγS incorporation assay, membranes of Flp-In T-Rex 293 cells; type: biochemical; details: for GTPγS pIC50: hFFA2, propionate at EC80, mean ± SEM, three or more experiments; for LLEGTPγS: pIC50, GTPγS – ClogP
# T1 construct: expressed in transfected cells; host or cells: membranes of Flp-In T-Rex 293 cells induced to express the construct
# T1 sequence (O15552 1-330): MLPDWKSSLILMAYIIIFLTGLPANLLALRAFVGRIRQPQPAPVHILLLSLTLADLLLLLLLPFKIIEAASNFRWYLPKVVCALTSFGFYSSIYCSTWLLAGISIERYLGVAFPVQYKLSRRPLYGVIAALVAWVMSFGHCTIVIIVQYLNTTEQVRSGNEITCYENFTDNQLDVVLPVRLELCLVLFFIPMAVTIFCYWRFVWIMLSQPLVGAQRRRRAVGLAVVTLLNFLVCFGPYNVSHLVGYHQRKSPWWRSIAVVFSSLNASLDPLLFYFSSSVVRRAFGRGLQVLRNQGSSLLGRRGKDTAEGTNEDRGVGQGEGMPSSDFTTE
# Description: The activity of the compounds on FFA2 was evaluated in two different functional antagonist assays, both using propionate at EC80 as the agonist. The GTPγS assay reflects receptor activation by directly assessing G protein recruitment, whereas the cAMP assay, performed in whole cells, reflects a physiologically relevant downstream second messenger.
# Functional activity of the compounds were tested in a [^35S]GTPγS incorporation assay using membranes of Flp-In T-Rex 293 cells induced to express human FFA2-eYFP. […] The reaction was initiated by addition of [^35S]GTPγS (100 nCi per reaction) containing 1 μM GDP and incubated at 30 °C for 60 min. The reaction was terminated by rapid vacuum filtration through GF/C glass fiber filter-bottom 96-well microplates (PerkinElmer Life Sciences, Beaconsfield, UK) using a UniFilter FilterMate Harvester (PerkinElmer). Unbound radioligands were removed from filters by three washes with ice-cold PBS. MicroScint-20 (PerkinElmer) was added to dried filters, and [^35S]GTPγS binding was quantified by liquid scintillation spectroscopy.
# [1] = Kinetic aqueous solubility; type: physicochemical; details: phosphate buffer; kinetic solubility in PBS at pH 7.4 and 25 °C
# Description: Twenty microliters of a 10 mM compound stock solution in DMSO was added to an Eppendorf tube containing 980 μL of phosphate buffer (10 mM, pH = 7.4). The samples were incubated in an Eppendorf Thermomixer (25 °C, 800 rpm) for 24 h. Afterward, the samples were centrifuged for 5 min at 11,000 rpm and the supernatant was filtered (0.2 μm PTFE membrane) before analysis by HPLC. Each compound was analyzed in duplicate. The solubility was calculated from the peak area relative to the reference samples (200 μM in MeOH/MilliQ H2O, 60/40, v/v).
# [2] = Chemical stability in PBS7.4; type: physicochemical
# Description: Duplicates of 1 mL of a 50 μM solution were prepared by adding the 10 mM stock solution to a 1.5 mL Eppendorf tube and diluting it with PBS7.4. The Eppendorf tubes were incubated at 37 °C with gentle shaking (650 rpm) using an Eppendorf Thermomixer. The samples were briefly vortexed, and 50 μL aliquots were withdrawn at the time points 0, 12, 48, etc.; added to 250 μL vials; and analyzed immediately by HPLC. The chemical stability in PBS7.4 was determined at every time point in percentage relative to the 0 h time point.
# Microsomal stability = type: in vitro ADME, mouse
# Description: The assay was performed in duplicates essentially as described previously,[58] using male CD1 mouse liver microsomes (Thermo Fischer Scientific, 20 mg/mL), NADPH-regenerating agent Solution A and Solution B (Promega), potassium phosphate buffer (100 mM, pH 7.4), and test compounds (1 mM, diluted from 10 mM DMSO stock in the buffer). The samples were analyzed in an Agilent 6130 Mass Spectrometer instrument using electron spray ionization (ESI) coupled to an Agilent 1200 HPLC system (ESI-LCMS) with a C18 reverse phase column (Zorbax Eclipse XBD-C18, 4.6 mm × 50 mm) using a linear gradient of the binary solvent system of 100% mobile phase A (water:MeCN:formic acid, 95:5:0.1 v/v%) to 100% mobile phase B (MeCN:formic acid, 100:0.1 v/v %) in 6 min, with a flow rate of 1 mL/min.
# To a pre-warmed solution of potassium phosphate buffer (135.6 μL) in an Eppendorf tube at 37 °C were added Solution A (7.5 μL), Solution B (1.5 μL), microsomes (3.9 μL), and the test compound (1 mM, 1.5 μL, final concentration = 10 μM). The tube was briefly vortexed and incubated at 37 °C in a thermomixer. At 0, 15, 30, 45, and 60 min, 25 μL of each sample was transferred to an ice-cold solution containing an internal standard (5 μM in MeCN, 12.5 μL). The sample was briefly vortexed and centrifuged for 5 min at 10.000g. The supernatant (25 μL) was transferred to HPLC vial and analyzed by ESI-LCMS in single ion mode. The data was analyzed using GraphPad Prism (version 9).
# [3] = remaining, PBS7.4 at 37 °C, 10 days
# [4] = % recovered after 60 min, mouse liver microsomes
structure (smiles),measurement,setting,value
"O=C(O)C[C@H](Cc1ccc(C(F)(F)F)cc1)NC(=O)Cc1cccc(Cl)c1 [Compound 3, reference compound]",GTPγS pIC50,human FFA2-eYFP,6.68 ± 0.05
same,LLEGTPγS,human FFA2-eYFP,2.47
same,solubility at 24 h,[1],166 µM
same,chemical stability,[2]; [3],90%
same,microsomal stability,Microsomal stability; [4],91%
"COc1cccc(CC(=O)N[C@@H](Cc2ccc(C(F)(F)F)cc2)Cc2nnn[nH]2)c1 [Compound 16l, (S)-N-(1-(1H-Tetrazol-5-yl)-3-(4-(trifluoromethyl)phenyl)propan-2-yl)-2-(3-methoxyphenyl)acetamide]",GTPγS pIC50,human FFA2-eYFP,8.46 ± 0.05
same,IC50,human FFA2-eYFP; inhibition of propionate at FFA2,3 to 4 nM and 4 nM
same,LLEGTPγS,human FFA2-eYFP,5.98
same,solubility at 24 h,[1],176 µM
same,chemical stability,[2]; [3],>95%
same,chemical stability,[2]; supplementary CSV,>95%
same,microsomal stability,Microsomal stability; [4],93%
same,in vitro clearance,Microsomal stability; mouse liver microsomes,low in vitro clearance
same,microsomal stability,Microsomal stability; supplementary CSV,93%
"O=C(Cc1cncc(Br)c1)N[C@@H](Cc1ccc(C(F)(F)F)cc1)Cc1nnn[nH]1 [Compound 16w, (S)-3-(2-((1-(1H-Tetrazol-5-yl)-3-(4-(trifluoromethyl)phenyl)propan-2-yl)amino)-2-oxoethyl)-5-bromopyridin-1-ium 2,2,2-trifluoroacetate]",GTPγS pIC50,human FFA2-eYFP,8.21 ± 0.09
same,LLEGTPγS,human FFA2-eYFP,6.28
same,solubility at 24 h,[1],183 µM
same,chemical stability,[2]; [3],>95%
same,chemical stability,[2]; supplementary CSV,>95%
same,microsomal stability,Microsomal stability; [4],92%
same,in vitro clearance,Microsomal stability; mouse liver microsomes,low in vitro clearance
same,microsomal stability,Microsomal stability; supplementary CSV,92%
